Test results as given in ChEMBL document CHEMBL1201862, “PubChem BioAssay data set” (2004).
Activity calls are given as the source filed them.

Tests used:
[1] = MITF: Counter assay: A375 proliferation Measured in Cell-Based System Using Plate Reader - 2084-03_Inhibitor_Dose_DryPowder_Activity_Set8.; assay type: functional; details: A-375
[2] = MITF Orthogonal Assay: SK-MEL-5 CTG Assay Measured in Cell-Based System Using Plate Reader - 2084-02_Inhibitor_Dose_DryPowder_Activity_Set7.; assay type: functional
[3] = inhibitors of TRPM1-promoter reporter in SK-MEL-5 – cell-based, luciferase, dry powder, set 8, MITF inhibitor project, dose response (AID 624430); assay type: functional
[4] = molecular target: T1, Replicative DNA helicase DnaB (Mycobacterium tuberculosis, UniProt P9WMR3); assay: DnaB intein splicing inhibitors, dose response, biochemical, cell-free fluorescence (AID 449749); assay type: functional
T1 sequence (P9WMR3 whole entry): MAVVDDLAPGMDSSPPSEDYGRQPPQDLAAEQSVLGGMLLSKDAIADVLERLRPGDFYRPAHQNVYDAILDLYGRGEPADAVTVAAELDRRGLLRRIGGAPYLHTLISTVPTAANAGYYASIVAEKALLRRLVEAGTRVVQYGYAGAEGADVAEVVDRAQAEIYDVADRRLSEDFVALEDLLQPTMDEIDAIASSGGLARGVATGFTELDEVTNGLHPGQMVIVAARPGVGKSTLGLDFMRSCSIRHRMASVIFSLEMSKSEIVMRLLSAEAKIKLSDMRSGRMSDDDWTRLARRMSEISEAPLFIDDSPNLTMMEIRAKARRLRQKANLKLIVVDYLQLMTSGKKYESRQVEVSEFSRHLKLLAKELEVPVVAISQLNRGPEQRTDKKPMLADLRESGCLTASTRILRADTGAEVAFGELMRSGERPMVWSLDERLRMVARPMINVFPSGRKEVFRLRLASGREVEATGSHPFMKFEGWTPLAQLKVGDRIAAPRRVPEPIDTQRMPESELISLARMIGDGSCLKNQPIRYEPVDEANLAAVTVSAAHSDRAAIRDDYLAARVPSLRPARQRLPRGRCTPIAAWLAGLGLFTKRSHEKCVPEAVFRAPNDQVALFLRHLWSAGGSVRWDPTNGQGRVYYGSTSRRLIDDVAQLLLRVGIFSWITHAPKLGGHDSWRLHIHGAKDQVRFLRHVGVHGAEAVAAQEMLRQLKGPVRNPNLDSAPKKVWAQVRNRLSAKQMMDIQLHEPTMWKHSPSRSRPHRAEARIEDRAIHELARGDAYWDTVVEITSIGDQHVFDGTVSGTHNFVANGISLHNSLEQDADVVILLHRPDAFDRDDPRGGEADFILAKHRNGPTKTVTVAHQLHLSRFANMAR

[5] = molecular target: Tyrosyl-DNA phosphodiesterase 2 (Homo sapiens, UniProt O95551); assay: potency against TDP2 phosphodiesterase activity – biochemical, epi absorbance, IC50, dose response (AID 743297)
[6] = molecular target: T2, Heat shock factor protein 1 (Mus musculus, UniProt P38532); assay: enhancement of HSF1-driven luciferase signal – cell-based, NIH3T3, luminescence, dose retest, confirmation (AID 435004); assay type: functional;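 also: stress induced by proteasome inhibitor MG132 added 30 min after compound; luciferase reporter driven by HSF1 response element in NIH3T3 cells; actives raise luminescence as potentiators of the MG132 stress response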
T2 sequence (P38532 whole entry): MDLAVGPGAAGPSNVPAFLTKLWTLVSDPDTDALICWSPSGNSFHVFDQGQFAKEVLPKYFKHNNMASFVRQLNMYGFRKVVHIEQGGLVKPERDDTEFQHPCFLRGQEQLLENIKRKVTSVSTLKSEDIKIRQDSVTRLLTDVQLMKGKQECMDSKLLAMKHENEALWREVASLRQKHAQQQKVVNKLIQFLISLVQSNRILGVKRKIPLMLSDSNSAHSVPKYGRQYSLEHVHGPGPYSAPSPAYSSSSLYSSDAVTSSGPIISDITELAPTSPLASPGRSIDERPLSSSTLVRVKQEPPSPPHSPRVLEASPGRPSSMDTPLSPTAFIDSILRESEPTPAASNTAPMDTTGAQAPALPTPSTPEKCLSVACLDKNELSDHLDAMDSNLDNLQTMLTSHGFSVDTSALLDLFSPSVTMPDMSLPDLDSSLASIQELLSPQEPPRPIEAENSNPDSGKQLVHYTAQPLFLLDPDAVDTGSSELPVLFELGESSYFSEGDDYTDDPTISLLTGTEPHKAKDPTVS

Protein RecA = molecular target: T3, Protein RecA (Mycobacterium tuberculosis, UniProt P9WHJ3); assay: Fluorescence Cell-Free Homogeneous Dose Retest to Identify Inhibitors of RecA-Intein Splicing Activity. [Related pubchem assays (depositor defined):AID2097, AID2223, AID489010, AID492950]; assay type: functional
T3 sequence (P9WHJ3 whole entry): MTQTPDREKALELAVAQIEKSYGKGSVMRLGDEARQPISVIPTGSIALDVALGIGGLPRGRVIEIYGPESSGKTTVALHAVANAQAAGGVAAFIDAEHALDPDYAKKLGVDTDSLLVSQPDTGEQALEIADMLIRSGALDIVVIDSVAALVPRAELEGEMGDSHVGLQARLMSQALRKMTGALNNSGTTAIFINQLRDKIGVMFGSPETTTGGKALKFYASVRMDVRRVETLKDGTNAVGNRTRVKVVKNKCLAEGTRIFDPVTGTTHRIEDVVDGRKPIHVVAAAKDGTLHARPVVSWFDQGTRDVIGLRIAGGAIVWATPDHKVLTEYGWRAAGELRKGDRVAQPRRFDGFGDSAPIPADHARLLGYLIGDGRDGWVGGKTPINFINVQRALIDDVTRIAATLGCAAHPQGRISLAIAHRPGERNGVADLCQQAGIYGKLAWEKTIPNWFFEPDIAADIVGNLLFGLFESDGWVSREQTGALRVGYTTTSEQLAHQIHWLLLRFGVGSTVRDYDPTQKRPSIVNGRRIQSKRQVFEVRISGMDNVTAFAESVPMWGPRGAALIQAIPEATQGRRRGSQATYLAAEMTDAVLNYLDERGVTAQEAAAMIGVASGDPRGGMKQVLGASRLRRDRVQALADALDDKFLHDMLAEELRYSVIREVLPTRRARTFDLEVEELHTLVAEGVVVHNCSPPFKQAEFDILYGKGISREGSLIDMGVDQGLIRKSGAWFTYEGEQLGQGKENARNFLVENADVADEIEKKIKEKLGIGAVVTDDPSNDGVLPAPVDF

[7] = molecular target: T4, Apoptotic protease-activating factor 1 (Homo sapiens, UniProt O14727); assay type: functional
T4 sequence (O14727 whole entry): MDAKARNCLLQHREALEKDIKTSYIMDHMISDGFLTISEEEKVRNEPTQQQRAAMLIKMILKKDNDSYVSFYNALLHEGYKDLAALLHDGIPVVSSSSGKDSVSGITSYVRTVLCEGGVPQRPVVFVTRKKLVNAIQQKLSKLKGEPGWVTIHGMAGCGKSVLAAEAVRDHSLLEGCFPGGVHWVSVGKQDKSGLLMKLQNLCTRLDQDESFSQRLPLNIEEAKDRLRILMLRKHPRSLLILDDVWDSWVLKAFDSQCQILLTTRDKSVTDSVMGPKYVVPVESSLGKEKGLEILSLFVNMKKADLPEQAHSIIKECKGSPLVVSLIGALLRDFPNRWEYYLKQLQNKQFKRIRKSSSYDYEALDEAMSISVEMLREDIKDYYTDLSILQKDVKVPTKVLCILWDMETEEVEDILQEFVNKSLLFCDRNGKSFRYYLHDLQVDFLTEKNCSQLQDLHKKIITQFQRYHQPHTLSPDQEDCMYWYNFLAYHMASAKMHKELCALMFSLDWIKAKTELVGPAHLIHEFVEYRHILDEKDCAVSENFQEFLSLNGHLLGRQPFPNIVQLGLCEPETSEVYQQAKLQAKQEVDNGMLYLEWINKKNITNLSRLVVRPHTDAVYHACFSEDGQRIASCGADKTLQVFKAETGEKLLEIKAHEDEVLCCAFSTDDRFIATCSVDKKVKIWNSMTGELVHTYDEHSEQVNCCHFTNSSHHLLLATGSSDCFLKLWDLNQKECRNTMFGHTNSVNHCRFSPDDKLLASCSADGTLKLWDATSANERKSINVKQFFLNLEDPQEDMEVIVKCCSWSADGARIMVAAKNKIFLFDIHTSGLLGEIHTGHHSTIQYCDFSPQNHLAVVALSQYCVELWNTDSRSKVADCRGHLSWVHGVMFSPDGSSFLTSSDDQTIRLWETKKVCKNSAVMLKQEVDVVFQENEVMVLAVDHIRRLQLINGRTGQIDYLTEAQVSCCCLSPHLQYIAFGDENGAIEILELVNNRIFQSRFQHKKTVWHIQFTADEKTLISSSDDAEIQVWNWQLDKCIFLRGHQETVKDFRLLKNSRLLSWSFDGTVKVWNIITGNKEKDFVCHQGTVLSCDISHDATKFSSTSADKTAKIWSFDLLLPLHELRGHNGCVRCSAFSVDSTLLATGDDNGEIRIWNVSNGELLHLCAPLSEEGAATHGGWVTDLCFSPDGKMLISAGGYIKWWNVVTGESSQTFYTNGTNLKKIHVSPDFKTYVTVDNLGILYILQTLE

INS1 = assay: INS-1E survival protection against cytokine death – cell-based, luminescence, retest, dose response (AID 449756); assay type: functional; details: Rattus norvegicus;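 also: cell death triggered by IL-1 beta plus TNF-alpha plus IFN-gamma mixture; protective hits raise ATP signal compared with cytokine alone wells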
[8] = Late stage assay provider results from the probe development effort to identify selective inhibitors of heat shock protein 90 (HSP90): Absorbance-based cell proliferation assay in SKBR3 cells.; assay type: functional; details: SK-BR-3
[9] = Late stage assay provider results from the probe development effort to identify selective inhibitors of heat shock protein 90 (HSP90): Absorbance-based cell proliferation assay in MCF7 cells.; assay type: functional
Beta-galactosidase [10] = molecular target: T5, Beta-galactosidase (Escherichia coli, UniProt Q8VNN2); assay type: functional
[11] = molecular target: T6, Kappa-type opioid receptor (Homo sapiens, UniProt P41145); assay type: functional
[12] = general mammalian cell viability loss – inhibitor set, cherry-pick, set 2, cytotoxicity control for miR-122 modulator project, dose response (AID 720697); assay type: functional, cell-based
[13] = DRD fibroblast viability loss – cell-based, non-viral oncogenic, luminescence, dose response (AID 1934); assay type: functional; details: Homo sapiens
BJ [14] = assay: BJ-TERT-LT-ST fibroblast viability loss – cell-based, RAS-independent, luminescence, dose response (AID 1935); assay type: functional; details: Homo sapiens;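 also: BJ fibroblasts immortalized with TERT plus LT and ST oncogenes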
[15] = activation of miR-122 Renilla sensor silencing – cell-based, Huh7 psiCHECK-miR122, Renilla luciferase, cherry-picked, dose response (AID 651956); assay type: functional;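 also: huh7 hepatoma cells stably carrying a psiCHECK-2 miR-122 sensor plasmid; renilla luciferase signal reporting endogenous miR-122 activity after 48 h compound exposure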
[16] = molecular target: T6, Kappa-type opioid receptor; assay type: functional; remark: listed apart in the source
[17] = system: Streptococcus sp. 'group A'; assay: Streptococcus pyogenes SK(-)GAS viability under kanamycin – luminescence, BacTiterGlo, confirmation, counter-screen for streptokinase expression inhibitor project, dose response (AID 1900); assay type: functional, organism-based
cells [18] = assay type: functional, cell-based
BJ [19] = assay: BJ-TERT fibroblast viability loss – cell-based, RAS-independent, luminescence, dose response (AID 1933); assay type: functional; details: Homo sapiens
[20] = molecular target: Photoreceptor-specific nuclear receptor (Homo sapiens, UniProt Q9Y5X4); assay type: functional, cell-based;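 also: CHO-S cells with Gal4-NCOR and VP16-NR2E3 two-hybrid luciferase reporter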
[21] = general mammalian cell viability loss – activator set, cherry-pick, cytotoxicity control for miR-122 modulator project, dose response (AID 720690); assay type: functional, cell-based;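 also: HEK293T human cells scored for general mammalian cytotoxicity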
BJ [22] = assay: cells; assay type: functional, cell-based; details: Homo sapiens
Nonstructural protein 1 = Nonstructural protein 1 (Influenza A virus, UniProt Q194T2); assay type: functional, Influenza A virus (A/California/07/2009(H1N1))
Beta-galactosidase [23] = molecular target: T5, Beta-galactosidase; assay: PubChem AID 485352; assay type: functional
cells [24] = assay type: functional, cell-based; remark: listed apart in the source
BJ [25] = assay: growth inhibition of engineered Ras-driven BJ cells – cell-based, alamar blue fluorescence, cherrypicked samples, dose response (AID 2631); assay type: functional; details: Homo sapiens;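 also: confirmatory dose-response assay in RAS-dependent BJ fibroblasts engineered with TERT, LT and ST, with cytotoxicity read by fluorescence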
Streptococcus = assay: GAS UMAA2166 growth inhibition – luminescence, BacTiterGlo, counter-screen for streptokinase expression inhibitor project, dose response (AID 1915); assay type: functional, organism-based;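 also: potency for reduction of bacterial viability or growth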
[26] = molecular target: T7, Type-1 angiotensin II receptor (Homo sapiens, UniProt P30556); assay: antagonism of angiotensin II type 1 receptor – cell-based, uHTS hits, selectivity assay for APJ receptor antagonist project, dose response (AID 463214); assay type: functional;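 also: antagonist potency against angiotensin II stimulated AT1 response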
T7 sequence (P30556 whole entry): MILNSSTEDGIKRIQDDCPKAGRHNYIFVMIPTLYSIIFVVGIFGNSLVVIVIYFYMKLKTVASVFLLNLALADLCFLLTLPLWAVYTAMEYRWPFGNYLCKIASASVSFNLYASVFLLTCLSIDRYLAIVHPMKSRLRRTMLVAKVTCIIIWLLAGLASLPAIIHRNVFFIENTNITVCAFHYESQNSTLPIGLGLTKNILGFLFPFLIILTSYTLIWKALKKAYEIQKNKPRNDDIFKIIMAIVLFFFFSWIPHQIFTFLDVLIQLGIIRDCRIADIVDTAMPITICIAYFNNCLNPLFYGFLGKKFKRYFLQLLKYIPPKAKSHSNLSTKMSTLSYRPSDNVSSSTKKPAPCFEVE

[27] = molecular target: Heat shock protein HSP 90-alpha (Homo sapiens, UniProt P07900); assay type: functional, organism-based

T5 sequence (Q8VNN2 whole entry): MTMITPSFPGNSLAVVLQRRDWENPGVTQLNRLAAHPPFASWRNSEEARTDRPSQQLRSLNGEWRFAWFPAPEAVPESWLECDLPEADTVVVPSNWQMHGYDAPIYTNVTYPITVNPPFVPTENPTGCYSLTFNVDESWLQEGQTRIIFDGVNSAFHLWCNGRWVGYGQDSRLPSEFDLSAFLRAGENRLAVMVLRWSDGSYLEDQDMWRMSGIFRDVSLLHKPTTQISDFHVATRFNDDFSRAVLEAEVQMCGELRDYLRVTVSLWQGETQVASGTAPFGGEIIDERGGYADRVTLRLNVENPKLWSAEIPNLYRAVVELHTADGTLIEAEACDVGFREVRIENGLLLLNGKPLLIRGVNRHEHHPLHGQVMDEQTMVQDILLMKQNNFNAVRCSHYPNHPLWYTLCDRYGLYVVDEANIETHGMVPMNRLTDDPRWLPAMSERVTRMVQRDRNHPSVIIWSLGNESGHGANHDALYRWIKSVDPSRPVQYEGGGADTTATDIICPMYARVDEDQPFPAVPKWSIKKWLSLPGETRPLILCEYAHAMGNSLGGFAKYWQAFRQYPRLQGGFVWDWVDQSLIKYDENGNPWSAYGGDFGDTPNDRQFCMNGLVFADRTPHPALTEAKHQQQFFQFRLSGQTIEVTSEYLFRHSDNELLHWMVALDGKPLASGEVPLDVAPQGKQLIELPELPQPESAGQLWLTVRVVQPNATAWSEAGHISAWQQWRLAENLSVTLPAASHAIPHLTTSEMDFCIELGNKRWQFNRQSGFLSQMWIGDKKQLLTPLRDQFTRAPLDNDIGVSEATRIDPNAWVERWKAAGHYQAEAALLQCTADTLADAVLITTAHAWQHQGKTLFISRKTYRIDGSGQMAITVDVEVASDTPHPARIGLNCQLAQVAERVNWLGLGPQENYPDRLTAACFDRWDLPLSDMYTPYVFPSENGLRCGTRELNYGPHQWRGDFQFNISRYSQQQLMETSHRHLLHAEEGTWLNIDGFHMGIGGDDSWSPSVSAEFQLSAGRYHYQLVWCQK
T6 sequence (P41145 whole entry): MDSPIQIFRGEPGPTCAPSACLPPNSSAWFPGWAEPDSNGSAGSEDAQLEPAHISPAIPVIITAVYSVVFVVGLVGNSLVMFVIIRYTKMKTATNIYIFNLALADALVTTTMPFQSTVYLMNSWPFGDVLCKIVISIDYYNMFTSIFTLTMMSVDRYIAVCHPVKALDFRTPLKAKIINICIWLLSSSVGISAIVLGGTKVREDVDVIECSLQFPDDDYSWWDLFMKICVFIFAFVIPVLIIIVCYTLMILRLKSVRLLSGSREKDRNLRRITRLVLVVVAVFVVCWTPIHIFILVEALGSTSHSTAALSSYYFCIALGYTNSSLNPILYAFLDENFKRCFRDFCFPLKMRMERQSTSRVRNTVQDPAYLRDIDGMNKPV
Sequence of Tyrosyl-DNA phosphodiesterase 2 (O95551 whole entry): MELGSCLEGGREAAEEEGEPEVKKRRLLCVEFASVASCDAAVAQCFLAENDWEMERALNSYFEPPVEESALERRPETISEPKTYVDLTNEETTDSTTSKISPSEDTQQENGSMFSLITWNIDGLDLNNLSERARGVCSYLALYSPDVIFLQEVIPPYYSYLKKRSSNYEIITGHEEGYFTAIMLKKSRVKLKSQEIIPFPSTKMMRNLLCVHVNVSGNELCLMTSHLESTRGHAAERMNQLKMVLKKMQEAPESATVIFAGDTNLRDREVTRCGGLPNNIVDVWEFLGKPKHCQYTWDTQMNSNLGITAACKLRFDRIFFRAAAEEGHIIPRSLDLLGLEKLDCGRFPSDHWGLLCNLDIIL
Sequence of Nonstructural protein 1 (Q194T2 whole entry): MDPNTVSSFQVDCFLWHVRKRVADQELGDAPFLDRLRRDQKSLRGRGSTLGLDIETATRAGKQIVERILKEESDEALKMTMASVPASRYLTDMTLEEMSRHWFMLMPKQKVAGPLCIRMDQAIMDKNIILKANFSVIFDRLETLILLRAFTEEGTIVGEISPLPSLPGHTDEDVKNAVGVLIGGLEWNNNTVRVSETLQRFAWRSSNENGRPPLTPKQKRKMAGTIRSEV
Sequence of Photoreceptor-specific nuclear receptor (Q9Y5X4 whole entry, the tested form may be a part): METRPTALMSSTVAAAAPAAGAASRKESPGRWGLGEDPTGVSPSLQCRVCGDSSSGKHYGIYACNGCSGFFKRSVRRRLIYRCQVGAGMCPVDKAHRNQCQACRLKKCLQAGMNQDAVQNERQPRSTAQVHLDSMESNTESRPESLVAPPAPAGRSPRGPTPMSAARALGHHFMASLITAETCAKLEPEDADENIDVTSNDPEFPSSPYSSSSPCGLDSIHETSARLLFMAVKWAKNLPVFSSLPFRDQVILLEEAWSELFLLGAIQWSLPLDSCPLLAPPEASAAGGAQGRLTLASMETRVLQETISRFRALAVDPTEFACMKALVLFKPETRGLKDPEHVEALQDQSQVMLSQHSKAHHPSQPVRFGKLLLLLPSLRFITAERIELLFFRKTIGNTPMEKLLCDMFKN

COc1ccc(NC2=C(N3CCN(C)CC3)C(=O)c3ccccc3C2=O)cc1
inactive: AC50 [1] > 70 µM
active: AC50 [2] 16.4 µM | AC50 [3] 24.9 µM

CC(=O)Nc1ccc(S(=O)(=O)NC2=C(N3CCN(c4ccc(F)cc4)CC3)C(=O)c3ccccc3C2=O)cc1
active: AC50 [4] 4.98 µM | EC50 (Protein RecA) 10.4 µM | IC50 [7] 17.4 µM | AC50 (INS1) 4.96 µM
inactive: IC50 [5] > 128 µM | EC50 [6] > 260 µM

O=C1OC(=O)/C(=C\NCCN2CCOCC2)C=C1Br
inactive: IC50 [8] 61 µM | IC50 [9] 67 µM

Cc1cccnc1Nc1nc(-c2ccccn2)cs1
inconclusive: EC50 [13] 15.3 µM | EC50 (BJ [14]) 6.23 µM
> 32 µM: IC50 [16]
inactive: EC50 (Beta-galactosidase [10]) > 31.5 µM | EC50 (Beta-galactosidase [23]) > 40 µM
active: IC50 [11] 2.9 µM | AC50 [12] 0.503 µM | AC50 [15] 43.8 µM | EC50 [17] 1.1 µM | EC50 (cells [18]) 3.13 µM | EC50 (BJ [19]) 1.46 µM | IC50 [20] 3.9 µM | AC50 [21] 2.3 µM | EC50 (BJ [22]) 2.18 µM | IC50 (Nonstructural protein 1) 2.83 µM | EC50 (cells [24]) 3.45 µM | EC50 (BJ [25]) 0.661 µM | EC50 [6] 3.33 µM | EC50 (Streptococcus) 6.4 µM | IC50 [26] 2.24 µM | AC50 (INS1) 0.29 µM | AC50 [27] 4.65 µM
